Test [1] addresses T1, influenza A virus (IAV) PA-Nter fragment (amino acids 1-209) (Influenza A virus, UniProt P31343).
T1 construct: PA-Nter fragment (amino acids 1-209); made in house
In words: FRET endonuclease activity assay. Format: biochemical. The note with it: PA-Nter 0.5 μM, 1.6 μM RNA substrate.

For test [2], the system named is influenza A virus A/Aichi/2/68 (H3N2) on MDCK cells. In words: Cytopathic effect (CPE) assay. Format: cell-based. Particulars: Influenza A virus, 48 hrs, the 1st table. In general terms: Cytopathic effects are the visible damage that an infection or toxin causes in cultured cells.

SMILES strings stand for the structures.

The IC50 is the concentration that gives 50% inhibition. Take `CC(C)N1CCn2c(CNC(=O)c3ccc(Cl)cc3)cc(=O)c(O)c2C1=O`: the results for the concentration for half-maximal inhibition (IC50) in test [1] and in test [2] were 245 nM and > 50000 nM, respectively.

As to `CC(C)N1CCn2c(CNC(=O)C3CC3)cc(=O)c(O)c2C1=O`, the IC50 is 350 nM in test [1] and > 50000 nM in test [2].

Take `CC(C)N1CCn2c(CNS(=O)(=O)c3ccc(Cl)cc3F)cc(=O)c(O)c2C1=O`: the results for the IC50 in test [1] and in test [2] were 223 nM and > 50000 nM, respectively.

On to `CC(C)N1CCn2c(CNS(=O)(=O)c3ccc(Cl)cc3)cc(=O)c(O)c2C1=O`, for which the IC50 in test [1] was 209 nM; in test [2], > 50000 nM.

Take `CC(C)N1CCn2c(CNS(=O)(=O)c3ccccc3Cl)cc(=O)c(O)c2C1=O`: the IC50 was 87 nM in test [1] and > 50000 nM in test [2].

As to `CC(C)N1CCn2c(CNS(=O)(=O)c3ccc(C#N)cc3)cc(=O)c(O)c2C1=O`, the half-inhibitory concentration (IC50) is 322 nM in test [1] and > 50000 nM in test [2].

`CCCN(Cc1cc(=O)c(O)c2n1CCN(C(C)C)C2=O)C(=O)C1CCCCC1`: the IC50 in test [2] was > 50000 nM.

Consider `CC(C)N1CCn2c(CNC(=O)C3CCCCC3)cc(=O)c(O)c2C1=O`, for which the IC50 was 360 nM in test [1] and > 50000 nM in test [2].

Consider `CC(C)N1CCn2c(CN)cc(=O)c(O)c2C1=O`, for which the IC50 in test [1] was 493 nM; in test [2], > 50000 nM.

On to `CCCN(Cc1cc(=O)c(O)c2n1CCN(C(C)C)C2=O)C(=O)c1ccccc1`, for which the IC50 in test [2] was > 50000 nM.

Consider `CC(C)N1CCn2c(CN(C)C)cc(=O)c(O)c2C1=O`, for which the half-inhibitory concentration (IC50) in test [1] is 92 nM; in test [2], > 50000 nM.

`CC(C)N1CCn2c(CN(Cc3ccccc3)C(=O)c3ccccc3)cc(=O)c(O)c2C1=O`: the values for the half-maximal inhibitory concentration (IC50) in test [1] and in test [2] were 315 nM and > 50000 nM, respectively.

Regarding `CC(C)N1CCn2c(CNC(c3ccccc3)c3ccccc3)cc(=O)c(O)c2C1=O`, the IC50 was 1130 nM in test [1] and > 50000 nM in test [2].

Regarding `Cc1noc(C)c1S(=O)(=O)NCc1cc(=O)c(O)c2n1CCN(C(C)C)C2=O`, the IC50 is 182 nM in test [1] and > 50000 nM in test [2].

For the compound `CC(C)N1CCn2c(CNS(=O)(=O)c3cccc(Cl)c3)cc(=O)c(O)c2C1=O`, the 50% inhibitory concentration (IC50) in test [1] was 62 nM; in test [2] it was > 50000 nM.

`CC(C)N1CCn2c(CNC(=O)[C@]34C[C@H]5C[C@H](C[C@H](C5)C3)C4)cc(=O)c(O)c2C1=O`: the 50% inhibitory concentration (IC50) was 1430 nM in test [1] and > 50000 nM in test [2].

Take `CC(C)N1CCn2c(CNS(=O)(=O)c3cn(C)cn3)cc(=O)c(O)c2C1=O`: the concentration for half-maximal inhibition (IC50) is 260 nM in test [1] and > 50000 nM in test [2].

In the case of `CC(C)N1CCn2c(CNS(=O)(=O)c3ccccc3F)cc(=O)c(O)c2C1=O`, the concentration for half-maximal inhibition (IC50) is 104 nM in test [1] and > 50000 nM in test [2].

Take `CC(C)N1CCn2c(CNC(=O)CC3CC3)cc(=O)c(O)c2C1=O`: the IC50 was 300 nM in test [1] and > 50000 nM in test [2].

`CC(C)N1CCn2c(CNC3c4ccccc4CCc4ccccc43)cc(=O)c(O)c2C1=O`: the half-inhibitory concentration (IC50) was 3620 nM in test [1] and > 50000 nM in test [2].

Regarding `CC(C)N1CCn2c(CN(Cc3cccc4ccccc34)C3CC3)cc(=O)c(O)c2C1=O`, the IC50 in test [2] was > 50000 nM.

In the case of `CC(C)N1CCn2c(CN(C)S(=O)(=O)c3ccccc3)cc(=O)c(O)c2C1=O`, the IC50 in test [1] is 200 nM; in test [2], > 50000 nM.

With `Cc1ccccc1S(=O)(=O)NCc1cc(=O)c(O)c2n1CCN(C)C2=O`, the IC50 in test [1] was 48 nM; in test [2], > 50000 nM.

With `CC(C)N1CCn2c(CNC3(c4ccccc4)CCCC3)cc(=O)c(O)c2C1=O`, the IC50 in test [2] is > 50000 nM.

`CC(C)N1CCn2c(CNC(=O)C3CC(F)(F)C3)cc(=O)c(O)c2C1=O`: the IC50 in test [2] was > 50000 nM.

As for `CCCN(Cc1cc(=O)c(O)c2n1CCN(C(C)C)C2=O)C(C)=O`, the IC50 in test [2] was > 50000 nM.

As to `CC(C)N1CCn2c(CN(Cc3ccccc3-c3ccccc3)C3CC3)cc(=O)c(O)c2C1=O`, the IC50 in test [2] was > 50000 nM.

Turning to `CCCN(Cc1cc(=O)c(O)c2n1CCN(C(C)C)C2=O)C(=O)C1CC1`, the 50% inhibitory concentration (IC50) in test [2] was > 50000 nM.

As for `CC(C)N1CCn2c(CN(Cc3ccccc3)c3ccccc3)cc(=O)c(O)c2C1=O`, it took 1180 nM to reach half-maximal inhibition in test [1] (IC50).

The record behind these values is patent US20160002226A1, “PYRI[…] AND THEIR USE IN THE TREATMENT, AMELIORATION OR PREVENTION OF INFLUENZA” (F. Hoffmann-La Roche AG, priority 2014, published 2016).
